Measured values: patent US8859009B2, “Method of fixing antibacterial agent and article obtained by the method” (Hiroshima University, priority 2008, dated 2014)

System: strain GDH18 of Candida Albicans
Test: Antibacterial-property test on hemocytometer cover glass test pieces (colour change of agar), Example 3
Format: cell-based
Experimental: A hemocytometer cover glass was used as a test piece of an article on which an antibacterial agent is fixed. A strain GDH18 of Candida Albicans was used as the bacteria for use in the antibacterial-property test. The bacteria was incubated on Sabouraud agar for 18 hours and a bacteria solution having bacteria concentration of 1×10^6 cells/mL was prepared using ultra pure water (MQ water). The test pieces were immersed for 1 minute in approximately 30 mL of ozone water (0.4 to 0.6 ppm) produced by using ultra pure water and “Ozone Dash” manufactured by Ozone Total System Co., Ltd. The test pieces were then drained on a filtering paper and immersed for 5 minutes in following aqueous solutions, respectively: Each test piece was then taken out of the aqueous solution, immediately washed with water such that excess antibacterial composition was removed, whereby test pieces for the antibacterial-property test were obtained. […] Each test piece was left for 2 hours at the room temperature to wait for sedimentation of the bacteria. Thereafter, 5 mL of Sabouraud agar containing chlorophenol red as a pH indicator (Candida yellow agar, manufactured by Fuji Pharma Co., Ltd.) was added to each test piece and the respective test pieces were continually incubated at 37° C. […] Antibacterial property was evaluated using such change in color as described above of the agar as an index.

**Q.** What does the source list for `CCCCCCCCCCCCCCCCCC[N+](C)(C)CCC[Si](OCC)(OCC)OCC.[Cl-]` [EtAC, octadecyldimethyl(3-triethoxysilylpropyl)ammonium chloride]?
**A.** antibacterial performance (control without ozone water treatment, EtAC treatment 5 minutes): hardly exhibited antibacterial performance; color of the agar (upper control: immersed in MQ water (no ozone water), then 70% ethanol solution of EtAC 5 minutes, 45 hours): strongly yellow; number of bacteria cells (upper control: immersed in MQ water (no ozone water), then 70% ethanol solution of EtAC 5 minutes, 45 hours, from agar colour): ≥ 5e+07 mL⁻¹
